Measured values taken from article PMC8008393, “Preclinical Lead Optimization of a 1,2,4-Triazole Based Tankyrase Inhibitor” (Journal of Medicinal Chemistry, 2020).
Converted amounts (≈) assume the structure as drawn. Read-outs that look alike come from different tables or passages of the source.

Key:
[1] = system: WNT/β-catenin signaling pathway reporter in HEK293 cells; experiment: cells; format: cell-based, human; conditions: for IC50: Homo sapiens, HEK293, read-out: HEK293 IC50, WNT/β-catenin reporter; for activity in words: assay not given (TNKS2 / HEK293), Supplementary Table 1
Experimental: (§1) In the first round of the optimization campaign, we prepared single-point modifications changing any of the four regions in 1 (Figure 1) while leaving the other regions constant. In the following stages of the optimization campaign, additional East, West, and South moieties were also utilized, combining the best structural elements of the first single-point modification round. For the optimization, in vitro ADME properties and solubility of selected compounds were measured.

kinetic solubility assay = format: physicochemical; conditions: for solubility: Table 2
Experimental: (§2) Kinetic solubility assay was performed following standard protocols of Mercachem. The following assays were performed according to the standard protocols of Cyprotex: Caco-2 permeability, dog microsomal stability, hepatocyte stability (human, mouse, dog, rat, and cynomolgus), CYP3A4 inhibition, mouse plasma stability, mouse plasma protein binding, and Ames test.

[2] = microsomal stability, human liver microsomes; format: in vitro ADME; conditions: for half-life at 1 μM: pH 7.4, read-out: Microsomal stability t1/2 human
Experimental: (§3) Test compounds in DMSO (10 mM) were further diluted to 100 μM in acetonitrile. Human or mouse liver microsomes (BioIVT) from selected species are incubated in duplicate with the test compound at a final concentration of 1 μM in 0.1 M potassium phosphate buffer (pH 7.4) containing 3.3 mM MgCl2, 0.5 mg/mL microsomal protein, in the presence or absence of NADPH (1 mM). Incubations were performed at 37 °C in a total volume of 500 μL. Control incubations with reference substances were included for each experiment. At t = 0, 5, 15, 30, 45 min, an amount of 50 μL of the incubation mixture was transferred to a quench plate containing acetonitrile and internal standard (200 nM labetalol) cooled at 4 °C. After the last time point, the quench plates are mixed thoroughly and centrifuged for 15 min at 3700 rpm and 10 °C (Eppendorf 5804R). The supernatant was transferred to a 96-well plate and analyzed by LCMS (Vanquish Horizon UHPLC equipped with a diode array detector coupled to a Q Exactive focus hybrid quadrupole-Orbitrap mass spectrometer). The metabolic stability is evaluated by plotting the natural logarithm of the percentage test compound remaining versus time and performing linear regression.

[3] = microsomal stability, mouse liver microsomes; format: in vitro ADME; conditions: for half-life at 1 μM: pH 7.4, read-out: Microsomal stability t1/2 mouse
Experimental: as §3

TNKS2 = molecular target: T1, TNKS2 (Homo sapiens, UniProt Q9H2K2); format: biochemical
T1 construct: TNKS2 (residues 873–1162); made in house
T1 sequence (Q9H2K2 873-1162): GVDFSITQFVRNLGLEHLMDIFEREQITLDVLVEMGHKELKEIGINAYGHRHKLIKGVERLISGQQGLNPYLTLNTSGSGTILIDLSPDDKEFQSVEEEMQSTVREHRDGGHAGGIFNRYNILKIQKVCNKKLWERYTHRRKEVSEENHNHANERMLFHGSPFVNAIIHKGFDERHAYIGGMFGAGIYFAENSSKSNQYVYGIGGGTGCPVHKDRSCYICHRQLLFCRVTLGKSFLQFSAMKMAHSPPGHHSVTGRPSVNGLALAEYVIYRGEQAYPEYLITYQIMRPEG
Experimental: as §1
Human tankyrase active constructs for TNKS1 (residues 1030–1317) and TNKS2 (residues 873–1162) and other ARTD/PARP enzymes used in the assays were expressed and purified as previously described.[34],[35] The enzymatic assay is based on the measurement of unreacted NAD^+, which is chemically converted into a fluorescent compound.[36] The fluorescence intensity was measured with excitation/emission wavelengths of 372 and 444 nm, respectively, using Tecan Infinity M1000 Pro. The compounds were prepared in half log dilution series and the reactions were done in quadruplicates with protein and compound controls to exclude the effect of compound autofluorescence. All reactions were done at ambient temperature. 20 nM TNKS1 or 5 nM TNKS2 was incubated for 20 h in assay buffer (50 mM BTP, pH 7.0, 0.5 mM TCEP, 0.01% Triton-X100) with compound and 10 μM or 500 nM NAD^+, respectively. […] For ARTD3/PARP3, 20 nM enzyme was incubated for 4 h with compound and 500 nM NAD^+ in assay buffer (50 mM PIPES, pH 7.0, 5 mM MgCl2, 20 μg/mL activated DNA, 0.2 mg/mL BSA). The assay conditions for the other ARTD enzymes were used as previously described.[37]

Caco-2 permeability = format: in vitro ADME; conditions: human
Experimental: as §2

[4] = hepatocyte stability, human; format: in vitro ADME; conditions: hepatocytes
Experimental: as §2

[5] = system: PARPs/ARTDs ARTD1/2/3/4/7/8/10/12; experiment: PARP/ARTD family selectivity, biochemical assays
CYP3A4 = molecular target: T2, CYP3A4 (Homo sapiens, UniProt P08684); experiment: CYP3A4 inhibition; format: in vitro ADME
T2 construct: Cyprotex
Experimental: as §2

in vivo = experiment: in vivo
Experimental: as §1
The pharmacokinetical analyses in mice were performed according to the standard protocols of Medicilon and, as previously described,[9] using 3 animals per treatment group using 5% DMSO, 50% PEG400 (both Sigma-Aldrich) and 45% saline as vehicle.

[6] = pH 7.4, read-out: Kinetic Solubility pH 7.4
[7] = A-B, read-out: Caco-2 permeability Papp AB

T2 sequence (P08684 whole entry, species assumed): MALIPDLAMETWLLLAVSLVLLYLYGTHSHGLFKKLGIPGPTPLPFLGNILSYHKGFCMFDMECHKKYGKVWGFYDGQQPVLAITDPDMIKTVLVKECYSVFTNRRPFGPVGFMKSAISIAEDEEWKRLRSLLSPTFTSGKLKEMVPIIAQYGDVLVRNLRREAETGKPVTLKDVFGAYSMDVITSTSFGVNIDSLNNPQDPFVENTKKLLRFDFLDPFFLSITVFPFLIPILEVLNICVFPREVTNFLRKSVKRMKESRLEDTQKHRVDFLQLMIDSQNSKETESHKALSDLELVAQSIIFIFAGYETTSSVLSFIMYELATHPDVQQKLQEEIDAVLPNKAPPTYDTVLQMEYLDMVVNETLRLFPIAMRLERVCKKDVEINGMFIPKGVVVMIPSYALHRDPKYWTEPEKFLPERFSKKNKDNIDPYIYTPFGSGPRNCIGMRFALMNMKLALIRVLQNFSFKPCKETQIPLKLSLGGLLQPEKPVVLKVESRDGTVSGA

## N#Cc1ccc2c(c1)[nH]c(=O)n2C12CC(c3nnc(-c4ccncn4)n3-c3ccccc3Cl)(C1)C2 [compound 19, 1-(3-(4-(2-Chlorophenyl)-5-(pyrimidin-4-yl)-4H-1,2,4-triazol-3-yl)bicyclo[1.1.1]pentan-1-yl)-2-oxo-2,3-dihydro-1H-benzo[d]imidazole-5-carbonitrile]
[1]
  IC50: 4.7 nM
Kinetic solubility assay; [6]
  solubility kinetic: 1.5 µM (≈ 0.721 µg/mL)
[2]; pH 7.4
  microsomal CLint at 0.75 h, 1 µM: 200 µL/min/mg
[2]
  half-life at 1 μM: 7 min
[3]; pH 7.4
  microsomal CLint at 0.75 h, 1 µM: 256 µL/min/mg
[3]
  half-life at 1 μM: 5 min
TNKS2
  IC50: 3.6 nM
Caco-2 permeability
  efflux ratio at 2 h, 10 µM: 5.3
Caco-2 permeability; [7]
  Papp A→B at 2 h, 10 µM: 5 ×10⁻⁶ cm/s

## Cc1cccc(-c2nnc([C@H]3C[C@H](NC(=O)c4ccnc5cccnc45)C3)n2-c2ccccc2F)n1 [compound 30]
Kinetic solubility assay; pH 7.4
  solubility: > 80 µM

## N#Cc1ccc2c(c1)[nH]c(=O)n2[C@H]1C[C@H](c2nnc(-c3ccncn3)n2-c2ccccc2C(F)(F)F)C1 [compound 66]
[1]
  activity in words: comparable activities to the previous lead 1

## O=C(N[C@H]1C[C@H](c2nnc(-c3ccccn3)n2-c2ccccc2F)C1)c1ccnc2cccnc12 [compound 26]
Kinetic solubility assay; pH 7.4
  solubility: > 80 µM

## O=C(N[C@H]1C[C@H](c2nnc(-c3ccc(OC(F)F)cn3)n2-c2ccccc2F)C1)c1ccnc2cccnc12 [compound 34]
Kinetic solubility assay; pH 7.4
  solubility: 14 µM (≈ 7.44 µg/mL)

## 3-(trans-3-(4-(2-Chlorophenyl)-5-(pyrimidin-4-yl)-4H-1,2,4-triazol-3-yl)cyclobutyl)isoindolin-1-one [compound 51]
[1]
  activity in words: activity was restored

## N#Cc1ccc2c(c1)[nH]c(=O)n2[C@H]1C[C@H](c2nnc(-c3ccncn3)n2-c2ccccc2Cl)C1 [compound 1]
Kinetic solubility assay; PBS, pH = 7
  solubility kinetic: 12 µM (≈ 5.63 µg/mL)
Kinetic solubility assay; [6]
  solubility kinetic: 12 µM (≈ 5.63 µg/mL)
[4]
  hepatocyte CLint: 9.8 µL/min/1e6 cells
[5]
  IC50: > 10000 nM
CYP3A4
  IC50: 1260 nM
[2]; pH 7.4
  microsomal CLint at 1 μM: 242 µL/min/mg
[2]
  half-life at 1 μM: 6 min
[3]; pH 7.4
  microsomal CLint at 1 μM: 204 µL/min/mg
[3]
  half-life at 1 μM: 7 min
In vivo; mouse po 5 mg/kg
  CL: 567 mL/min/kg
  Vd: 74.2 L/kg
In vivo; mouse po 5 mg/kg, 5 mg/kg
  T1/2: 90 min
In vivo; mouse, in vivo, po, 5 mg/kg
  AUC(0-inf): 147 ng·h/mL
  AUC(0-t): 145 ng·h/mL
  Cmax: 124 ng/mL
  MRT inf: 96.6 min
  Tmax: 15 min
  bioavailability: 47%
In vivo; mouse, in vivo, po, 5 mg/kg, T1/2, mouse po 5 mg/kg
  half-life: 90.6 min
Caco-2 permeability; [7]
  Papp A→B: 10 ×10⁻⁶ cm/s

## N#Cc1ccc2c(c1)[nH]c(=O)n2[C@H]1C[C@@H](c2nnc(-c3ccncn3)n2-c2ccccc2Cl)C1 [compound 75]
TNKS2
  potency in words: decreased potency

## Cn1c(=O)n([C@H]2C[C@H](c3nnc(-c4ccncn4)n3-c3ccccc3Cl)C2)c2ccc(C#N)cc21 [compound 17]
[1]
  IC50: 116 nM
TNKS2
  IC50: 34 nM

## CN(C(=O)c1ccccn1)[C@H]1C[C@H](c2nnc(-c3ccncn3)n2-c2ccccc2Cl)C1 [compound 44]
[1]
  activity in words: inactive

## Cc1cccc(-c2nnc([C@H]3C[C@H](NC(=O)c4ccnc5cc(F)cnc45)C3)n2-c2ccccc2F)n1 [compound 31]
Kinetic solubility assay; pH 7.4
  solubility: > 80 µM

## CC(=O)N[C@H]1C[C@H](c2nnc(-c3ccncn3)n2-c2ccccc2Cl)C1 [compound 54]
[1]
  activity in words: inactive

## N#Cc1ccc2c(c1)oc(=O)n2[C@H]1C[C@H](c2nnc(-c3ccncn3)n2-c2ccccc2Cl)C1 [compound 18, 3-(trans-3-(4-(2-Chlorophenyl)-5-(pyrimidin-4-yl)-4H-1,2,4-triazol-3-yl)cyclobutyl)-2-oxo-2,3-dihydrobenzo[d]oxazole-6-carbonitrile]
[1]
  IC50: 274 nM
TNKS2
  IC50: 48 nM

## O=C(N[C@H]1C[C@H](c2nnc(-c3ccc(OC(F)F)cn3)n2-c2ccccc2F)C1)c1ccnc2cc(F)cnc12 [compound 35]
Kinetic solubility assay; pH 7.4
  solubility: 54 µM (≈ 29.7 µg/mL)

## O=C(Cc1ccccc1)N[C@H]1C[C@H](c2nnc(-c3ccncn3)n2-c2ccccc2Cl)C1 [compound 52]
[1]
  activity in words: inactive

## O=C(N[C@H]1C[C@H](c2nnc(-c3ccncn3)n2-c2ccccc2Cl)C1)C1CCCCC1 [compound 53]
[1]
  activity in words: inactive
